Experimental data taken from patent publication US4874749A, “4"-Deoxy-4-N-methylamino avermectin Bla/Blb” (Merck & Co., Inc., priority 1987, dated 1989).

Experiments:
Type in all cases: in vivo
[1] = tested on: Rainbow Trout (Salmo gairdneri); test: Acute toxicity to Rainbow Trout, static fish bioassay
Experimental: The static fish bioassay was conducted in five gallon glass vessels containing 15 liters of soft reconstituted water composed of the following compounds in the amounts stated per liter of deionized water:
This reconstituted water was prepared to yield a total hardness of 40-48 mg/l as CaCO3, a total alkalinity of 20-30 mg/l as CaCO3 and an initial pH of 7.2 to 7.6. The 0-hour measured control water parameters of this dilution water were dissolved oxygen 9.7 mg/l and pH 7.4.
The test vessels were kept in a water bath at 12° C. The test fish were acclimated to the dilution water and test temperature and held without food for 48-96 hours prior to testing.
Based on the results of preliminary testing, six concentrations of the test compound with ten fish per concentration were selected for the definitive bioassay. The definitive test concentrations were obtained by transferring appropriate aliquots of a working standard directly to the test chambers. The working standard was prepared in dimethylformamide (DMF). Also included was a dilution water control and a solvent control chamber.
The fish were added to the test chambers by random assignment within 30 minutes after addition of test material. All test organisms were observed once every 24 hours for mortality and abnormal (sub-lethal) effects. any dead individuals were removed from the test chambers after each 24-hour observation. The LC50 statistic and its 95 percent confidence limits were calculated by employing a computerized standard program.

[2] = tested on: Heliothis zea larvae; test: Foliar ingestion toxicity against Heliothis zea larvae
[3] = tested on: southern armyworm; test: LD90 test against southern armyworm (micrograms/GWT); details: GWT = Gram Weight of the Test insect
Source text: (§1) For example, tests have been carried out in which the instant compound was compared with avermectin Bla/Blb (avermectin the starting material for the instant compound) and 4"-deoxy-4"-amino avermectin Bla/Blb. […] Expressed another way, 4"-deoxy-4"-amino avermectin Bla/Blb was 60% effective at 0.5 micrograms/GWT against southern armyworm while 4"-deoxy-4"-epi-N-methylamino avermectin Bla/Blb was 90% effective at 0.125 micrograms/GWT against the same parasite.

[4] = tested on: Heliothis zea larvae; test: Contact toxicity study against Heliothis zea larvae; details: 96 hours
[5] = tested on: Spodoptera eridania larvae; test: Contact toxicity study against Spodoptera eridania larvae; details: 96 hours, in microgram per gram body weight (BTI 159)
Experimental: In a contact toxicity study against Spodoptera eridania larvae 4"-deoxy-4"-epimethylamino avermectin Bla/Blb was 4 times more toxic than 4"-deoxy-4"-epiamino avermectin Bla/Blb as measured at 96 hours in microgram per gram body weight. (BTI 159).

[6] = tested on: Daphnia magna; test: Acute toxicity to Daphnia magna
Experimental: In one test of the instant compound (see Example 5) and closely related avermectin compounds against Daphnia magna, described as a 48 hour LC50 test, that is, the concentration of compound which is fatal to 50% of Daphnia magna over a 48 hour period, it was observed that avermectin Bla/Blb has an LC50 of 300 ppt (parts per trillion); and 4"-deoxy-4"-amino avermectin Bla/Blb has an LC50 of 600 ppt.
Ten Dahpnia magna (first instar less than 24 hours old) were placed in a 250 ml glass beaker containing 200 ml of an aqueous solution of the test compounds in concentrations from 1.0 to 10 microgram/liter (ppb). The test compounds were dissolved in a small volume of acetone for dilution with water. The solvent control contained 0.010 ml of acetone which is equivalent to the highest test concentration. A control and solvent control was added to the experiment which was conducted in two replicates. All concentrations were observed once at 24 and 48 hours for mortality and abnormal effects such as surfacing, clumping of the daphnids together and daphnids lying on the bottom of the beakers.

[7] = tested on: Spodoptera eridania larvae; test: Foliar ingestion toxicity study against Spodoptera eridania larvae
[8] = tested on: Bluegill Sunfish (Lepomis macrochirus); test: Acute toxicity to Bluegill Sunfish
Experimental: The same test procedure was used as described in example 6, except that Bluegill Sunfish were used and that the test vessels were kept in a water bath at 22° C.

[9] = tested on: tobacco budworm; test: LD90 test against tobacco budworm (micrograms/GWT); details: GWT = Gram Weight of the Test insect
Source text: as §1

[10] = tested on: Heliothis virescens larvae; test: Foliar ingestion toxicity study against Heliothis virescens larvae
[11] = tested on: Heliothis virescens larvae; test: Contact toxicity study against Heliothis virescens larvae
[12] = 24 hr, nominal concentration 0.056 mg/l
[13] = 24 hr, nominal concentration 0.10 mg/l
[14] = 24 hr, nominal concentration 0.18 mg/l
[15] = 24 hr, nominal concentration 0.32 mg/l
[16] = 24 hr, nominal concentration 0.56 mg/l
[17] = 24 hr, nominal concentration 1.0 mg/l
[18] = 48 hr, nominal concentration 0.056 mg/l
[19] = 48 hr, nominal concentration 0.10 mg/l
[20] = 48 hr, nominal concentration 0.18 mg/l
[21] = 48 hr, nominal concentration 0.32 mg/l
[22] = 48 hr, nominal concentration 0.56 mg/l
[23] = 48 hr, nominal concentration 1.0 mg/l
[24] = 96 hr, nominal concentration 0.056 mg/l
[25] = 96 hr, nominal concentration 0.10 mg/l
[26] = 96 hr, nominal concentration 0.18 mg/l
[27] = 96 hr, nominal concentration 0.32 mg/l
[28] = 96 hr, nominal concentration 0.56 mg/l
[29] = 96 hr, nominal concentration 1.0 mg/l
[30] = 0.04 microgram/gram body weight
[31] = 48 hour, ppt = parts per trillion

4"-Deoxy-4"-epi-methylaminoavermectin Bla/Blb
LC50 ([1]; 24 hours): > 1.0 milligrams/liter (ppm)
Percent Mortality [1, 12]: 0%
Percent Mortality [1, 13]: 0%
Percent Mortality [1, 14]: 0%
Percent Mortality [1, 15]: 0%
Percent Mortality [1, 16]: 0%
Percent Mortality [1, 17]: 0%
LC50 ([1]; 48 hours): > 1.0 milligrams/liter (ppm)
Percent Mortality [1, 18]: 0%
Percent Mortality [1, 19]: 0%
Percent Mortality [1, 20]: 0%
Percent Mortality [1, 21]: 0%
Percent Mortality [1, 22]: 0%
Percent Mortality [1, 23]: 0%
LC50 ([1]; 96 hours): 0.67 milligrams/liter (ppm)
Percent Mortality [1, 24]: 0%
Percent Mortality [1, 25]: 0%
Percent Mortality [1, 26]: 0%
Percent Mortality [1, 27]: 0%
Percent Mortality [1, 28]: 20%
Percent Mortality [1, 29]: 100%
LC90 [2]: 0.002 ppm
times more toxic than avermectin Bla/Blb (LC90) [2]: 105 times
LD90 (Lethal Dose for 90% of the insects) [3]: 0.542 micrograms/GWT
mortality [4, 30]: 20%
mortality ([4]; 0.4 microgram/g body weight): 100%
mortality ([4]; 4.0 microgram/gram body weight): 100%
times more toxic than 4"-deoxy-4"-epiamino avermectin Bla/Blb [5]: 4 times
Percent Mortality ([6]; 24 hr, nominal concentration 1.0 microgram/l): 0%
Percent Mortality ([6]; 24 hr, nominal concentration 1.8 microgram/l): 0%
Percent Mortality ([6]; 24 hr, nominal concentration 3.2 microgram/l): 20%
Percent Mortality ([6]; 24 hr, nominal concentration 5.6 microgram/l): 30%
Percent Mortality ([6]; 24 hr, nominal concentration 10.0 microgram/l): 90%
times less toxic than the 4"-amino compound ([6]; 48 hour LC50, vs 4"-deoxy-4"-amino avermectin Bla/Blb): ~5 times
times less toxic than the avermectin Bla/Blb compound ([6]; 48 hour LC50, vs avermectin Bla/Blb): ~10 times
LC50 [6, 31]: 2900 ppt
LC50 ([6]; 48 hours): 2.9 micrograms/l
Percent Mortality ([6]; 48 hr, nominal concentration 1.0 microgram/l): 0%
Percent Mortality ([6]; 48 hr, nominal concentration 1.8 microgram/l): 5%
Percent Mortality ([6]; 48 hr, nominal concentration 3.2 microgram/l): 70%
Percent Mortality ([6]; 48 hr, nominal concentration 5.6 microgram/l): 95%
Percent Mortality ([6]; 48 hr, nominal concentration 10.0 microgram/l): 100%
LC90 (lethal concentration for 90% of the insects) [7]: 0.005 ppm
times more toxic than avermectin Bla/Blb (LC90) [7]: 1166 times
LC50 ([8]; 24 hours): 0.75 milligrams/liter (ppm)
Percent Mortality [8, 12]: 0%
Percent Mortality [8, 13]: 0%
Percent Mortality [8, 14]: 0%
Percent Mortality [8, 15]: 0%
Percent Mortality [8, 16]: 0%
Percent Mortality [8, 17]: 100%
LC50 ([8]; 48 hours): 0.45 milligrams/liter (ppm)
Percent Mortality [8, 18]: 0%
Percent Mortality [8, 19]: 0%
Percent Mortality [8, 20]: 0%
Percent Mortality [8, 21]: 0%
Percent Mortality [8, 22]: 90%
Percent Mortality [8, 23]: 100%
LC50 ([8]; 96 hours): 0.24 milligrams/liter (ppm)
Percent Mortality [8, 24]: 0%
Percent Mortality [8, 25]: 0%
Percent Mortality [8, 26]: 0%
Percent Mortality [8, 27]: 100%
Percent Mortality [8, 28]: 100%
Percent Mortality [8, 29]: 100%
LD90 (Lethal Dose for 90% of the insects) [9]: 0.4 micrograms/GWT
LC90 [10]: 0.003 ppm
times more toxic than avermectin Bla/Blb (LC90) [10]: 43 times
mortality ([11]; 0.1 microgram/g body weight): 25%
mortality ([11]; 0.4 microgram/g body weight): 100%

4"-deoxy-4"-amino avermectin Bla/Blb [reference compound]
LD90 (Lethal Dose for 90% of the insects) [3]: 3.4 micrograms/GWT
LC50 [6, 31]: 600 ppt
LC50 ([6]; 48 hours): 0.6 micrograms/l
LD90 (Lethal Dose for 90% of the insects) [9]: 1.3 micrograms/GWT

4"-deoxy-4"-epiamino avermectin Bla/Blb [reference compound]
mortality [4, 30]: 0%
mortality ([4]; 0.4 microgram/g body weight): 90%
mortality ([4]; 4.0 microgram/gram body weight): 100%
mortality ([11]; 0.1 microgram/g body weight): 5%
mortality ([11]; 0.4 microgram/g body weight): 30%

avermectin Bla/Blb [reference compound]
LC50 ([1]; 24 hours): > 0.006 milligrams/liter (ppm)
LC50 ([1]; 48 hours): 0.0046 milligrams/liter (ppm)
LC50 ([1]; 96 hours): 0.0032 milligrams/liter (ppm)
LC90 [2]: 0.21 ppm
LD90 (Lethal Dose for 90% of the insects) [3]: > 34.0 micrograms/GWT
LC50 [6, 31]: 300 ppt
LC50 ([6]; 48 hours): 0.34 micrograms/l
LC90 (lethal concentration for 90% of the insects) [7]: 5.83 ppm
LC50 ([8]; 24 hours): 0.029 milligrams/liter (ppm)
LC50 ([8]; 48 hours): 0.019 milligrams/liter (ppm)
LC50 ([8]; 96 hours): 0.0096 milligrams/liter (ppm)
LD90 (Lethal Dose for 90% of the insects) [9]: > 1.3 micrograms/GWT
LC90 [10]: 0.128 ppm
